Measurements reported in patent US10731159B2, “Cationic lipid” (DAIICHI SANKYO COMPANY, LIMITED, priority 2013, dated 2020).

Key:
Type in all cases: physicochemical
[1] = Average particle size of nucleic acid lipid particle (NICOMP 380ZLS)
Method: The particle size of the liposome was measured using Zeta Potential/Particle Sizer NICOMP™ 380ZLS (Particle Sizing Systems, LLC). In the tables, the average particle size is indicated by a volume-average particle size, and the numeric value following ±represents a deviation.

[2] = Rate of encapsulation of polynucleotide/mRNA (Quant-iT RiboGreen, with and without Triton X-100)
[3] = Ratio of polynucleotide/mRNA to lipid (wt/wt)
[4] = particles of Example 31, volume-average particle size ± deviation
[5] = particles of Example 31: DSPC:Chol:LP:PEG-C-DMA=20:48:30:2, CT-157/CT-169 double-stranded polynucleotide

SMILES | Average particle size [1, 4] [nm] | Rate of polynucleotide encapsulation [2, 5] [%] | Ratio of polynucleotide to lipid siRNA/lipid ([3]; particles of Example 31, total lipids calculated from phospholipid, cholesterol and LP amounts (Table 4)) [wt/wt] | Average particle size ([1]; Example 55: particles prepared as in Example 31, ± deviation) [nm] | Rate of polynucleotide encapsulation ([2]; Example 55: particles prepared as in Example 31 (β-catenin double-stranded polynucleotide)) [%] | Ratio of polynucleotide to lipid siRNA/lipid ([3]; Example 55: particles prepared as in Example 31) [wt/wt] | Ratio of polynucleotide to lipid siRNA/lipid ([3]; particles of Example 31, total lipids calculated from phospholipid amount and compositional ratio (Table 3)) [wt/wt]
CCCCC/C=C\C/C=C\CCCCCCCC(CCCCCCCCCC)OC(=O)OCCCN(C)C (stereo not drawn) [Example 8, 3-Dimethylaminopropyl(9Z,12Z)-octacosa-19,22-dien-11-yl Carbonate] | 157 ± 46 | 96.4 | 0.072 | – | – | – | –
CCCCC/C=C\C/C=C\CCCCCCCCC(CCCCCCCC/C=C\C/C=C\CCCCC)OC(=O)OCCN(C)C [Reference Example 2, 2-(Dimethylamino)ethyl(6Z,9Z,28Z,31Z)-heptatriaconta-6,9,28,31-tetraen-19-yl Carbonate, reference compound] | 139 ± 50 | 89.0 | – | 165 ± 11 | 94 | 0.055 | 0.104
